Article PMC8899577, “Targeting the anti-apoptotic Bcl-2 family proteins: machine learning virtual screening and biological evaluation of new small molecules” (Theranostics, 2022)

Tests used:
Format in all cases: cell-based, Human
HL60 cells = assay: Western blot of PARP1 cleavage, HL60; conditions: 20 µM for 24 h
Method: (§1) Western blot analyses of total protein extracts were performed as previously described. Immunodetection was performed using antibodies directed to poly (ADP-ribose) polymerase (PARP; BD Biosciences San Diego, CA, USA), LC3B (Cell Signaling Technology, Danvers, MA), HSP72/73 (Calbiochem, EMD Biosciences, La Jolla, CA), Bcl-2 (SC-509, Santa Cruz Biotechnology Inc, Dallas, TX, USA), Bcl-xL (SC-271121, Santa Cruz Biotechnology Inc), Mcl-1 (SC-12756, Santa Cruz Biotechnology Inc) α-tubulin (Santa Cruz Biotechnology Inc) actin (Sigma-Aldrich, St. Louis, Missouri, USA). Anti-rabbit or anti-mouse immunoglobulin G-horseradish peroxidase-conjugated antibodies (Amersham Biosciences, Freiburg, Germany) were used as secondary antibody. Images were acquired by Image Lab Software (Bio-Rad, Hercules, CA, USA), using a ChemiDoc System instrument (Bio-Rad). […]
(§2) Figure 5 Analysis of apoptosis induction by IS20 and IS21 in leukemia, melanoma and NSCLC cells. […] (G) Flow cytometric quantification of cells in the subG1 peak of cell cycle distribution by propidium iodide staining in HL60 cell line treated with IS20 or IS21 (20 μM for 24 h) and in M14, H1299 and MDA-MB-231 cell lines treated with IS20 or IS21 (20 μM for 72 h). Data are reported as mean ± SD of three independent experiments. p-values were calculated between control (Ctrl) and treated cells, * p < 0.05. […]

M14 cells = assay: Flow cytometry subG1 peak (PI staining), M14; conditions: 20 µM for 72 h
Method: Flow cytometric analysis (BD Accuri™ C6, BD Biosciences) was performed to evaluate cell cycle distribution by propidium iodide (PI) staining, and cell viability by using the PI dye exclusion assay as previously reported.
Figure 5 Analysis of apoptosis induction by IS20 and IS21 in leukemia, melanoma and NSCLC cells. […] (A-F) Reported images are representative of two independent experiments with similar results. HSP72/73 or α-Tubulin are shown as loading and transferring control. (G) Flow cytometric quantification of cells in the subG1 peak of cell cycle distribution by propidium iodide staining in HL60 cell line treated with IS20 or IS21 (20 μM for 24 h) and in M14, H1299 and MDA-MB-231 cell lines treated with IS20 or IS21 (20 μM for 72 h). Data are reported as mean ± SD of three independent experiments. p-values were calculated between control (Ctrl) and treated cells, * p < 0.05. (H) Flow cytometric quantification of cells in the subG1 peak by propidium iodide staining in M14 and H1299 cell lines treated with IS20 or IS21 (20 μM, 72 h) in presence or absence of the pan caspase inhibitor z-VAD (50 μM). p-values were calculated between treated control (Ctrl) cells, # p < 0.01, ## p < 0.001 or between cells treated with IS20 or IS21 alone or in combination with z-VAD, * p < 0.05, ** p < 0.005. (G-H) Data are reported as mean of two (H) or three (G) experiments ± SD.

MDA-MB-231 cells = assay: Western blot of PARP1 cleavage, MDA-MB-231; conditions: 72 h
Method: as §1, §2

CCCCOc1ccc(C2/C(=C(\O)c3ccc4c(c3)CC(C)O4)C(=O)C(=O)N2c2nnc(SCc3ccc(Cl)cc3)s2)cc1OCC (stereo not drawn) [IS20]
PARP1 cleavage, HL60 (HL60 cells): cleavage of PARP1
subG1 peak of cell cycle distribution, M14 (M14 cells): presence of subG1 peak
PARP1 cleavage, MDA-MB-231 (MDA-MB-231 cells): not evident

CCCCCOc1ccc(C2/C(=C(\O)c3ccc4c(c3)CC(C)O4)C(=O)C(=O)N2c2nnc(SCc3ccc(Cl)cc3)s2)cc1OCC (stereo not drawn) [IS21]
PARP1 cleavage, HL60 (HL60 cells): cleavage of PARP1
subG1 peak of cell cycle distribution, M14 (M14 cells): presence of subG1 peak
PARP1 cleavage, MDA-MB-231 (MDA-MB-231 cells): not evident
